What was measured:
pBR322 plasmid = test: DNA strand break analysis, agarose gel electrophoresis; format: biochemical; details: pBR322, 24 h, even at high concentration (500 μM)
Experimental: Then, the interaction between DNA and diclofenac, PTA, or 1 was evaluated by the gel electrophoresis of pBR322 plasmid to determine an ability to cause double- and/or single-strand DNA damages (Figure 6D). The double-strand damage may result in the appearance of different forms of DNA (linear form III and relaxed form II), which can be quantified by densitometry analysis (Figure 6E).
DNA Strand Break Analysis
The ability of 1, PTA and diclofenac to induce single- or double-strand breaks in plasmid DNA was tested
with the pBR322 plasmid (c = 0.5 mg/mL). All compounds were dissolved in water (c = 1 µM-500 µM).
After 1 h incubation at 37 °C, the reaction mixtures (20 μL) were mixed with 3 μL of loading buffer
(bromophenol blue in 30% glycerol) and loaded on 1% agarose gels, containing EB, in TBE buffer (90
mM Tris–borate, 20 mM EDTA, pH = 8.0). Gel electrophoresis was performed at a constant voltage of
100 V (4 V/cm) for 60 min. The gel was photographed and processed with a Digital Imaging System
(Syngen Biotech). For the densitometric analysis the UltraQuant 6.0 program was used.

PANC-1 [1] = test: MTT cytotoxicity assay (IC50); format: cell-based, human; details: Homo sapiens, PANC-1, 72 h
Experimental: (§1) MCF7 cell line (human breast adenocarcinoma, morphology: epithelial-like, ATCC: HTB-22), A549 cell […]
(§2) keratinocyte, morphology: epidermal, CSL Cell Lines Service GmbH); were cultured in Dulbecco’s Modified Eagle’s Medium (DMEM, Corning) with phenol red, supplemented with 10% fetal bovine serum (FBS) and with 1% streptomycin/penicillin. […]
(§3) from metastatic site: brain, ATCC: HTB-81) and MCR-5 cell line (primary line of human pulmonary […]
(§4) 10% fetal bovine serum (FBS). Cultures were incubated at 37 °C under a humidified atmosphere containing 5% CO2. Cells were transferred using a solution containing 0.05% trypsin and 0.5 mM EDTA.
(§5) All media and other ingredients were purchased from ALAB, Poland.
(§6) Cytotoxicity was assessed by MTT assay performed according the protocols described elsewhere.S1 In brief, 1×10^4 cells per well, seeded in 96-well flat bottom microtiter plate, were incubated with the tested compounds (in the appropriate media) at various range of concentrations for 24 h. After that time, solutions of compounds were washed out, cells were washed three times with PBS and fresh medium was applied. After next 72 h cell viability was determined using the Hill equation (Origin 9.0) with regard to the untreated cells (control), where y0 – untreated cell control (which was set to 100% viability), y100 – a lysis control (where the cells were treated with 0.5% triton X-100 was set to 0% […]
(§7) [c] at which the viability of the cells reaches 50%, H – the Hill coefficient (describing cooperativity):
(§8) Each compound concentration was tested in five replicates and repeated at least three times.
(§9) Determined values of IC50 are given as mean + S.D. (Standard Deviation).
(§10) Cisplatin was tested as a reference anticancer drug. […]

HaCat [2] = test: MTT cytotoxicity assay (IC50); format: cell-based, human; details: Homo sapiens, HaCaT, 72 h
Experimental: as §1, §2, §3, §4, §5, §6, §7, §8, §9, §10

A549 [3] = test: MTT cytotoxicity assay (IC50); format: cell-based, human; details: Homo sapiens, A549, 72 h
Experimental: as §1, §2, §3, §4, §5, §6, §7, §8, §9, §10

MCF7 = test: MTT cytotoxicity assay (IC50); format: cell-based, human; details: Homo sapiens, MCF7, 72 h
Experimental: as §1, §2, §3, §4, §5, §6, §7, §8, §9, §10

MRC5 = test: MTT cytotoxicity assay (IC50); format: cell-based, human; details: Homo sapiens, MRC5, 72 h
Experimental: as §1, §2, §3, §4, §5, §6, §7, §8, §9, §10

DU-145 [4] = test: MTT cytotoxicity assay (IC50); format: cell-based, human; details: Homo sapiens, DU-145, 72 h
Experimental: as §1, §2, §3, §4, §5, §6, §7, §8, §9, §10

PANC-1 [5] = test: MTT survival test, surviving fraction (Table S3); format: cell-based, human
Experimental: (§11) 24, and 72 h. After each incubation time, the cells were washed with PBS. Then, fresh medium (supplemented with 10% FSB) was added, and the cells were incubated under standard conditions for another 24 h (6h + 24h, 24h + 24h, 72h + 24h). After this time, the MTT survival test was done. Surviving fraction given in % was estimated with relation to untreated cells. In the case of 6h + 24h and 24h + 24h approaches, the cells were seeded at 10 000 cells per well, while in the case of 72h + 24h at […]

HaCat [6] = test: MTT survival test, surviving fraction (Table S3); format: cell-based, human
Experimental: as §11

A549 [7] = test: MTT survival test, surviving fraction (Table S3); format: cell-based, human
Experimental: as §11

DU-145 [8] = test: MTT survival test, surviving fraction (Table S3); format: cell-based, human
Experimental: as §11

MCF-7 = test: MTT survival test, surviving fraction (Table S3); format: cell-based, human
Experimental: as §11

PANC-1 cells [9] = details: PANC-1, 1 at IC50, others at molar ratio 1:1:1, 72 h after treatment
Experimental: as §1, §2, §3, §4
All media and other ingredients were purchased from ALAB, Poland. […]
Acridine Orange (OA) and Propidium Iodide PI Staining
AO is a nucleic acid-binding fluorophore that is cell membrane permeable and suitable for selective staining of nucleated living cells. PI is a nucleic acid-binding dye that is impermeable to live cells and suitable for staining dead or dying nucleated cells. All live, nucleated cells fluoresce green due to AO, and dead, nucleated cells are stained with both AO and PI and fluoresce red. For analysis of 1-induced

PANC-1 cells [10] = test: Mitochondrial membrane potential, JC-10 assay; format: cell-based, human; details: PANC-1, 4 h, 1 at IC50, others at molar ratio 1:1:1
Experimental: As an important indicator of mitochondrial dysfunction, the variation in mitochondrial membrane potential was monitored by the JC-10 probe (Figure 6C) aiming to understand the importance of mitochondrial disorder during the cancer cell death induced by 1.
Detection of Mitochondrial Membrane Potential (Δψ)
Mitochondrial membrane potential (MMP) depletion was determined by JC-10 Assay (Life
Technologies, USA). […] After 24h
ciprofloxacin (10 µg/mL) as positive and negative control, respectively. After that, cells were incubated
for 4 h at standard condition (37 °C, 5% CO2). Then, they were washed twice with PBS buffer and
incubated with JC-10 for 1 h. Afterwards, emission was measured at two different excitation
wavelengths ( exc = 540 nm,  em = 570 nm) and ( exc = 485 nm,  em = 530 nm). Results are presented as
the intensity ratio of red to green emission (mean + S.D.).

Structure (SMILES): C1N2CN3CN1CP(C2)C3 [PTA, 1,3,5-triaza-7-phosphaadamantane]
- degradation of plasmid DNA (pBR322 plasmid): no degradation of DNA
- IC50 (PANC-1 [1]): 1290 ± 52.6 µM
- IC50 (HaCat [2]): 826 ± 8.76 µM
- IC50 (A549 [3]): 1170 ± 14.7 µM
- IC50 (MCF7): 1471 ± 14.4 µM
- IC50 (MRC5): 867 ± 18.3 µM
- IC50 (DU-145 [4]): 1230 ± 21.9 µM
- surviving fraction (PANC-1 [5]; PANC-1, 6h + 24h, dil. 10 000x (stocks: diclofenac 0.918, PTA 0.483, AgNO3 0.326 mg/mL)): 89.7 ± 12.5%
- surviving fraction (PANC-1 [5]; PANC-1, 6h + 24h, dil. 100x (stocks: diclofenac 0.918, PTA 0.483, AgNO3 0.326 mg/mL)): 74.7 ± 9.8%
- surviving fraction (PANC-1 [5]; PANC-1, 6h + 24h, dil. 1000x (stocks: diclofenac 0.918, PTA 0.483, AgNO3 0.326 mg/mL)): 86.5 ± 6.4%
- surviving fraction (PANC-1 [5]; PANC-1, 24h + 24h, dil. 10 000x (stocks: diclofenac 0.918, PTA 0.483, AgNO3 0.326 mg/mL)): 107.5 ± 6.8%
- surviving fraction (PANC-1 [5]; PANC-1, 24h + 24h, dil. 100x (stocks: diclofenac 0.918, PTA 0.483, AgNO3 0.326 mg/mL)): 78.7 ± 8.3%
- surviving fraction (PANC-1 [5]; PANC-1, 24h + 24h, dil. 1000x (stocks: diclofenac 0.918, PTA 0.483, AgNO3 0.326 mg/mL)): 85.2 ± 9.5%
- surviving fraction (PANC-1 [5]; PANC-1, 72h + 24h, dil. 10 000x (stocks: diclofenac 0.918, PTA 0.483, AgNO3 0.326 mg/mL)): 98.9 ± 8.9%
- surviving fraction (PANC-1 [5]; PANC-1, 72h + 24h, dil. 100x (stocks: diclofenac 0.918, PTA 0.483, AgNO3 0.326 mg/mL)): 70.8 ± 6.7%
- surviving fraction (PANC-1 [5]; PANC-1, 72h + 24h, dil. 1000x (stocks: diclofenac 0.918, PTA 0.483, AgNO3 0.326 mg/mL)): 83.4 ± 5.1%
- surviving fraction (HaCat [6]; 6h + 24h, dil. 10 000x (stocks: diclofenac 0.918, PTA 0.483, AgNO3 0.326 mg/mL)): 109.7 ± 6.3%
- surviving fraction (HaCat [6]; 6h + 24h, dil. 100x (stocks: diclofenac 0.918, PTA 0.483, AgNO3 0.326 mg/mL)): 99.7 ± 4.9%
- surviving fraction (HaCat [6]; 24h + 24h, dil. 10 000x (stocks: diclofenac 0.918, PTA 0.483, AgNO3 0.326 mg/mL)): 98.1 ± 12.1%
- surviving fraction (HaCat [6]; 24h + 24h, dil. 100x (stocks: diclofenac 0.918, PTA 0.483, AgNO3 0.326 mg/mL)): 92.2 ± 5.3%
- surviving fraction (HaCat [6]; 24h + 24h, dil. 1000x (stocks: diclofenac 0.918, PTA 0.483, AgNO3 0.326 mg/mL)): 96.7 ± 9.7%
- surviving fraction (HaCat [6]; 72h + 24h, dil. 10 000x (stocks: diclofenac 0.918, PTA 0.483, AgNO3 0.326 mg/mL)): 100.6 ± 8.1%
- surviving fraction (HaCat [6]; 72h + 24h, dil. 100x (stocks: diclofenac 0.918, PTA 0.483, AgNO3 0.326 mg/mL)): 91.2 ± 6.5%
- surviving fraction (HaCat [6]; 72h + 24h, dil. 1000x (stocks: diclofenac 0.918, PTA 0.483, AgNO3 0.326 mg/mL)): 98.2 ± 8.4%
- surviving fraction (A549 [7]; A549, 6h + 24h, dil. 10 000x (stocks: diclofenac 0.918, PTA 0.483, AgNO3 0.326 mg/mL)): 96.8 ± 10.8%
- surviving fraction (A549 [7]; A549, 6h + 24h, dil. 100x (stocks: diclofenac 0.918, PTA 0.483, AgNO3 0.326 mg/mL)): 77.5 ± 9.8%
- surviving fraction (A549 [7]; A549, 6h + 24h, dil. 1000x (stocks: diclofenac 0.918, PTA 0.483, AgNO3 0.326 mg/mL)): 82.4 ± 12.9%
- surviving fraction (A549 [7]; A549, 24h + 24h, dil. 10 000x (stocks: diclofenac 0.918, PTA 0.483, AgNO3 0.326 mg/mL)): 98.6 ± 5.9%
- surviving fraction (A549 [7]; A549, 24h + 24h, dil. 100x (stocks: diclofenac 0.918, PTA 0.483, AgNO3 0.326 mg/mL)): 77.2 ± 12.8%
- surviving fraction (A549 [7]; A549, 24h + 24h, dil. 1000x (stocks: diclofenac 0.918, PTA 0.483, AgNO3 0.326 mg/mL)): 88.2 ± 8.7%
- surviving fraction (A549 [7]; A549, 72h + 24h, dil. 10 000x (stocks: diclofenac 0.918, PTA 0.483, AgNO3 0.326 mg/mL)): 92.7 ± 8.6%
- surviving fraction (A549 [7]; A549, 72h + 24h, dil. 100x (stocks: diclofenac 0.918, PTA 0.483, AgNO3 0.326 mg/mL)): 67.3 ± 8.6%
- surviving fraction (A549 [7]; A549, 72h + 24h, dil. 1000x (stocks: diclofenac 0.918, PTA 0.483, AgNO3 0.326 mg/mL)): 79.8 ± 7.5%
- surviving fraction (DU-145 [8]; Du-145, 6h + 24h, dil. 10 000x (stocks: diclofenac 0.918, PTA 0.483, AgNO3 0.326 mg/mL)): 106.9 ± 9.2%
- surviving fraction (DU-145 [8]; Du-145, 6h + 24h, dil. 100x (stocks: diclofenac 0.918, PTA 0.483, AgNO3 0.326 mg/mL)): 78.4 ± 11.8%
- surviving fraction (DU-145 [8]; Du-145, 6h + 24h, dil. 1000x (stocks: diclofenac 0.918, PTA 0.483, AgNO3 0.326 mg/mL)): 89.3 ± 8.8%
- surviving fraction (DU-145 [8]; Du-145, 24h + 24h, dil. 10 000x (stocks: diclofenac 0.918, PTA 0.483, AgNO3 0.326 mg/mL)): 99.2 ± 7.2%
- surviving fraction (DU-145 [8]; Du-145, 24h + 24h, dil. 100x (stocks: diclofenac 0.918, PTA 0.483, AgNO3 0.326 mg/mL)): 73.8 ± 12.6%
- surviving fraction (DU-145 [8]; Du-145, 24h + 24h, dil. 1000x (stocks: diclofenac 0.918, PTA 0.483, AgNO3 0.326 mg/mL)): 89.2 ± 5.8%
- surviving fraction (DU-145 [8]; Du-145, 72h + 24h, dil. 10 000x (stocks: diclofenac 0.918, PTA 0.483, AgNO3 0.326 mg/mL)): 101.2 ± 12.4%
- surviving fraction (DU-145 [8]; Du-145, 72h + 24h, dil. 100x (stocks: diclofenac 0.918, PTA 0.483, AgNO3 0.326 mg/mL)): 62.3 ± 8.7%
- surviving fraction (DU-145 [8]; Du-145, 72h + 24h, dil. 1000x (stocks: diclofenac 0.918, PTA 0.483, AgNO3 0.326 mg/mL)): 84.2 ± 8.2%
- surviving fraction (MCF-7; MCF-7, 6h + 24h, dil. 10 000x (stocks: diclofenac 0.918, PTA 0.483, AgNO3 0.326 mg/mL)): 88.6 ± 7.5%
- surviving fraction (MCF-7; MCF-7, 6h + 24h, dil. 100x (stocks: diclofenac 0.918, PTA 0.483, AgNO3 0.326 mg/mL)): 78.6 ± 13.1%
- surviving fraction (MCF-7; MCF-7, 6h + 24h, dil. 1000x (stocks: diclofenac 0.918, PTA 0.483, AgNO3 0.326 mg/mL)): 89.6 ± 4.8%
- surviving fraction (MCF-7; MCF-7, 24h + 24h, dil. 10 000x (stocks: diclofenac 0.918, PTA 0.483, AgNO3 0.326 mg/mL)): 100.2 ± 6.6%
- surviving fraction (MCF-7; MCF-7, 24h + 24h, dil. 100x (stocks: diclofenac 0.918, PTA 0.483, AgNO3 0.326 mg/mL)): 70.9 ± 8.8%
- surviving fraction (MCF-7; MCF-7, 24h + 24h, dil. 1000x (stocks: diclofenac 0.918, PTA 0.483, AgNO3 0.326 mg/mL)): 82.7 ± 11.5%
- surviving fraction (MCF-7; MCF-7, 72h + 24h, dil. 10 000x (stocks: diclofenac 0.918, PTA 0.483, AgNO3 0.326 mg/mL)): 102.5 ± 6.0%
- surviving fraction (MCF-7; MCF-7, 72h + 24h, dil. 100x (stocks: diclofenac 0.918, PTA 0.483, AgNO3 0.326 mg/mL)): 84.7 ± 8.9%
- surviving fraction (MCF-7; MCF-7, 72h + 24h, dil. 1000x (stocks: diclofenac 0.918, PTA 0.483, AgNO3 0.326 mg/mL)): 88.6 ± 7.9%
- cytotoxicity seen by AO/PI staining (PANC-1 cells [9]): did not induce visible cytotoxicity
- change of mitochondrial membrane potential (570/530 nm ratio of JC-10 fluorescence intensity) (PANC-1 cells [10]): significant decrease

Source: publication PMC9776540, “Therapeutic Potential of a Water-Soluble Silver-Diclofenac Coordination Polymer on 3D Pancreatic Cancer Spheroids” (Journal of Medicinal Chemistry, 2022)
